Results taken from patent US20030134779A1, “Method and composition for treatment and/or prevention of antibiotic-resistant microorganism infections” (priority 2002, published 2003).
Where two headings read alike, the source gives them in different places.

Assays:
S. aureus ST79/41 = experiment: MIC of penicillin G alone or with bovine LF, macrodilution; format: cell-based; details: Staphylococcus aureus, strain β-lactamase +B, read-out: MICs of penicillin G
Description: (§1) Staphylococcus aureus strains ATCC 25923 and 6538 and Escherichia coli ATCC 25922 were obtained from the American Type Culture Collection. Eight bovine mastitis clinical isolates of S. aureus (SHY97-3906, -3923, -4085 -4242, -4320 and -4343, RFT-1 and RFT-5) and one isolate of E. coli SHY97-3923-2 and one isolate of Kiebsiella pneumoniae SHY99-723-1 were kindly provided by the Laboratoire Provincial de Pathologie Animale of St-Hyacinthe and of Rock-Forest (Quebec, Canada), respectively. Nine β-lactam antibiotics resistant S. aureus strains (PC-1, NCTC 9789, 2076, 22260, ST79/741, 3804, RN9, FAR8, and FAR10) were obtained from Vanderbilt University School of Medicine (Nashville, Tenn., USA). All the culture media were from Difco Laboratories (Detroit, Mich.). Bacteria from frozen stock at −80° C. were streaked onto tryptic soy agar plates suplemented with 5% of defibrinated sheep blood (Quelab, Montreal, QC, Canada) or Brain Heart infusion agar plates. Plates were then incubated for 16 to 24 h at 37° C. For most experiments, the strains were subcultured onto Mueller Hinton agar plates (MHA) or broth (MHB) for an additional 16-20 h. Aqueous solutions of the tested products were added by filtration through a sterile filter assembly (pore size 0.2 μm, Fisher, Ottawa, Ontario).
(§2) The MICs were determined by both macrodilution (1 ml/tube) and microdilution (100 μl/well) in sterile 96 well microtiter plates (International Nunc, Napierville, Ill.) techniques in three separate experiments according to the National Committee for Clinical Laboratory Standards (1992 and 1999) in three separate experiments. Serial 2-fold dilutions in MHB of LF, LFC, antibiotic or combination of LF or LFC with antibiotic were inoculated with an overnight culture at a final inoculum of 10^6 cfu/ml in MHB. Effect of LF combination with antibiotic on MICs were determined by adding 0.5 mg or 1 mg/ml of LF to each antibiotic dilution. The MIC was defined as the lowest concentration of drug (highest dilution) that caused a complete inhibition of bacterial growth after an incubation of 18 h. Effect of LF or LFC combination with antibiotic on MIC was also determined by checkerboard method using 96 well microtiter plates. Each antibiotic dilution (50 μl) was serially added to the wells in vertical rows starting from the top (lower dilution) to the bottom. Lactoferrin or LFC (50 μl) were added to 50 μl of each antibiotic dilution and serially diluted starting at the left (lower dilution) to the right. After inoculation, the final concentration of antibiotic from top to bottom were 32 to 8, 2 to 0.5, 0.5 to 0.125 μg/ml for penicillin, cefazolin and neomycin, respectively. From left to right, the concentration of LF or LFC were 25 to 0.0244 mg/ml or 256 to 0.5 μg/ml respectively in a final volume of 100 μl/well. The microplate's were incubated at 37° C. for 24 h. Bacterial growth was measured optically at 540 nm using Spectra Max 250 Microplate Spectrophotometer System of Molecular Device (Fisher Scientific, Ottawa, Canada). Tubes were incubated at 37° C. for 18 h and bacterial growth was measured by visual examination and optically at 540 nm using a spectrophotometer (Philips PU 8800; Pye Unican Ltd, Cambridge, UK). The fractional inhibitory concentration (FIC) was calculated as described by Eliopoulos and Moellering (1991).

S. aureus SHY97-3906 = experiment: as above; format: cell-based; details: Staphylococcus aureus, strain β-lactamase + uncharacterised, read-out: MICs of penicillin G
Description: as §1, §2

S. aureus NCTC = experiment: as above; format: cell-based; details: Staphylococcus aureus, strain β-lactamase +A
Description: as §1, §2

S. aureus ATCC 25923 = experiment: Cell morphology by transmission electron microscopy; format: cell-based, Staphylococcus aureus
Protocol: Bacterial cells were grown overnight on MHA or MHB containing sub-MICs of penicillin G with or without LF or LFC. Microorganisms were prepared for transmission electron microscopy by fixation with glutaraldehyde followed by ferritin labelling. This method allows good- preservation of capsular material. Briefly, bacterial cells grown in the presence or absence of antibiotics were fixed in cacodylate buffer (0.1 M, pH 7.0) containing 5% (v/v) glutaraldehyde, for 2 h at 20° C. Fixed microorganims were suspended in cacodylate buffer and allowed to react with the polycationic ferritin (Sigma Chemicals, St-Louis, Mo.; final concentration 1.0 mg/ml) for 30 min at 20° C. The reaction was slowed down by 10-fold dilution with buffer, and the microorganisms were centrifuged and washed three times in cacodylate buffer. Bacterial cells were then immobilized in 4% (w/v) agar, washed 5 times in cacodylate buffer and post-fixed with 2% (w/v) osmium tetroxide for 2 h. Washings were repeated as above, and the samples dehydrated in a graded series of acetone washes. Samples were then washed twice in propylene oxide and embedded in Spurr low-viscosity resin. Thin sections were post-stained with uranyl acetate and lead citrate and examined with an electron microscope (Philips 201) at an accelerating voltage of 60 kV.

SMILES: CC1(C)S[C@@H]2[C@H](NC(=O)Cc3ccccc3)C(=O)N2[C@H]1C(=O)O [penicillin G, Penicillin G]
- MIC (S. aureus ST79/41; ST79/41, +0.5 mg/ml LF): 16 µg/mL
- MIC (S. aureus ST79/41; ST79/41, +1 mg/ml LF): 16 µg/mL
- MIC (S. aureus ST79/41; ST79/41, Alone): 32 µg/mL
- MIC (S. aureus SHY97-3906; SHY973906, +0.5 mg/ml LF): 0.5 µg/mL
- MIC (S. aureus SHY97-3906; SHY973906, +1 mg/ml LF): 0.25 µg/mL
- MIC (S. aureus SHY97-3906; SHY973906, Alone): 0.5 µg/mL
- MIC (S. aureus NCTC; read-out: MICs of penicillin G, +0.5 mg/ml LF): 128 µg/mL
- MIC (S. aureus NCTC; read-out: MICs of penicillin G, +1 mg/ml LF): 128 µg/mL
- MIC (S. aureus NCTC; read-out: MICs of penicillin G, Alone): > 128 µg/mL
- cell morphology (S. aureus ATCC 25923; penicillin G 0.0078 μg/ml alone, 18-h): induced formation of large symmetrically arranged pseudomulticellular staphylococci
- cell morphology (S. aureus ATCC 25923; penicillin G 0.0078 μg/ml with LF 9.1 μg/ml): asymmetrically arranged pseudomulticellular staphylococci were formed
